According to the NIST ThermoML archive (doi:10.1021/acs.jced.5b01044):
± gives the expanded uncertainty stated by the source. One block for each compound: values may come before it.

Details: Liquid, Ebulliometric method (Recirculating still)

- vapor or sublimation pressure (478.95 K): 101.3 ± 0.5 kPa
SMILES: CC(C)(CO)CO [2,2-dimethyl-1,3-propanediol]

- vapor or sublimation pressure (470.22 K): 101.3 ± 0.5 kPa
SMILES: OCCO [1,2-ethanediol]

SMILES: Cc1ccc(C)cc1 [1,4-dimethylbenzene]
- vapor or sublimation pressure (411.21 K): 101.3 ± 0.5 kPa
